US9951058B2, “Compound, pharmaceutically acceptable salt or optical isomer thereof, method for preparing the same, and pharmaceutical composition for prevention or treatment of viral diseases containing same as active ingredient” (Korea Research Institute of Chemical Technology, priority 2012, dated 2018)
Converted amounts (≈) assume the structure as drawn. Read-outs that look alike come from different tables or passages of the source.

Tests used:
HRV 14 = assay: Cytopathic effect (CPE) inhibition assay; format: cell-based, human rhinovirus; settings: for EC50: Human rhinovirus sp., HeLa, 72 h, read-out: EC50 HRV 14
[1] = test system: coxsackievirus B3 (Cox B3); assay: Multicycle cytopathic effect (CPE) reduction assay; format: cell-based; settings: for EC50 CoxB3: 100 CCID50, MTS, 37° C., 3 days; for EC50: Enterovirus B, B3, 72 h, read-out: EC50 CoxB3
HRV 21 = assay: Cytopathic effect (CPE) inhibition assay; format: cell-based, human rhinovirus; settings: for EC50: Human rhinovirus sp., 72 h, read-out: EC50 HRV 21
HRV 71 = assay: Cytopathic effect (CPE) inhibition assay; format: cell-based, human rhinovirus; settings: for EC50: Human rhinovirus sp., 72 h, read-out: EC50 HRV 71
[2] = test system: coxsackievirus B1 (Cox B1); assay: Multicycle cytopathic effect (CPE) reduction assay; format: cell-based; settings: for EC50 CoxB1: 100 CCID50, MTS, 37° C., 3 days; for EC50: Enterovirus B, B1, 72 h, read-out: EC50 CoxB1
HeLa = assay: Cytotoxicity (CC50) in multicycle CPE reduction assay, MTS; settings: Table 4; MTS, 37° C., 3 days
[3] = test system: HeLa (human cervical cancer cells)
poliovirus 3 (PV3) = assay: microbe, parasite or virus in culture; format: cell-based; settings: for EC50 PV3: 100 CCID50, MTS, 37° C., 3 days; for EC50: Enterovirus C, 72 h, read-out: EC50 PV3
[4] = in vivo, cited from earlier work
[5] = test system: rhinoviruses and enteroviruses; settings: cited from earlier work
[6] = cited from earlier work; for therapeutic effect: clinical
[7] = test system: HeLa (human cervical cancer cells); assay: Cytotoxicity (CC50) in mock-infected cells, CPE inhibition assay, MTT; settings: Table 3; mock-infected cells, MTT assay, 2-3 days
[8] = as above; settings: human
[9] = Cytotoxicity (CC50) in multicycle CPE reduction assay, MTS; settings: human
[10] = test system: 48 rhinovirus types and coxsackievirus A21, B3, enterovirus 70 and echovirus 11; settings: Pattick et al. 1999; cited from earlier work
in vitro = settings: human
[11] = host cell HeLa, 3 days, MEM/2% FBS, MTT assay

CC(C)c1ccc2c(c1)OC1(O)c3ccccc3C(=O)C21NC(=O)CCC(=O)O (stereo not shown) [Example 57, 4-((4b-hydroxy-7-isopropyl-10-oxo-4b, 10-dihydro-9bH-indeno[1,2-b]benzofuran-9b-yl)amino)-4-oxo butanoic acid]
EC50 HRV 14 (HRV 14; [11]): <10.0 µg/mL | EC50 CoxB3 [1]: <1.0 µg/mL | EC50 HRV 21 (HRV 21; [11]): >10.0 µg/mL | EC50 HRV 71 (HRV 71; [11]): >10.0 µg/mL | EC50 CoxB1 [2]: <1.0 µg/mL | CC50 Cytotoxicity (HeLa): >10.0 µg/mL | CC50 Cytotoxicity [3]: >10.0 µg/mL | EC50 PV3 (poliovirus 3 (PV3)): >10.0 µg/mL

Cc1cc(CCCCCCCOc2ccc(C3=NCCO3)cc2)on1 [disoxaril]
bioavailability [4]: low bioavailability | metabolization and excretion [4]: rapid metabolization and excretion | antiviral effects in the cell culture [5]: very good antiviral effects

CCC(=O)C(CCCCCCOc1ccc(OC)cc1Cl)C(=O)CC [arildone]
bioavailability [4]: low bioavailability | antiviral effects in the cell culture [5]: very good antiviral effects

Cc1cc(CCCCCOc2c(Cl)cc(C3=NCCO3)cc2Cl)on1 [WIN 54954]
metabolization and excretion [4]: rapid metabolization and excretion | side effects ([6]; in vivo): skin rash

N-(1-amino-4b-hydroxy-7-isopropyl-10-oxo-4b, 10-dihydro-9bH-indeno[1,2-b]benzofuran-9b-yl)-2-oxo hexanamide [Example 50]
CC50 Cytotoxicity [7]: >10.0 µg/mL | EC50 HRV 14 (HRV 14; [11]): <0.1 µg/mL | EC50 CoxB3 [1]: <0.1 µg/mL | EC50 HRV 21 (HRV 21; [11]): >10.0 µg/mL | EC50 HRV 71 (HRV 71; [11]): >10.0 µg/mL | EC50 CoxB1 [2]: <0.1 µg/mL | CC50 Cytotoxicity (HeLa): >10.0 µg/mL | EC50 PV3 (poliovirus 3 (PV3)): <1.0 µg/mL

CCOC(=O)c1ccc(OCCC2CCN(c3ccc(C)nn3)CC2)cc1 [pirodavir]
antiviral effects in the cell culture [5]: very good antiviral effects

CC(C)c1ccc2c(c1)OC1(O)c3c(cccc3[N+](=O)[O-])C(=O)C21NC(=O)C(=O)Cc1ccccc1[N+](=O)[O-] (stereo not shown) [Example 25, N-(4b-hydroxy-7-isopropyl-4-nitro-10-oxo-4b, 10-dihydro-9bH-indeno[1,2-b]benzofuran-9b-yl)-3-(2-nitrophenyl)-2-oxo propanamide]
CC50 [8]: 2.6 µg/mL (≈ 4.89 µM) | EC50 (HRV 14): > 2.6 µg/mL | EC50 [1]: < 1 µg/mL | EC50 (HRV 21; HeLa): > 2.6 µg/mL | EC50 (HRV 71; HeLa): > 2.6 µg/mL | EC50 [2]: < 1 µg/mL | CC50 at 3 days [9]: 9.5 µg/mL (≈ 17.9 µM) | EC50 (poliovirus 3 (PV3)): > 9.5 µg/mL

CCOC(=O)/C=C/[C@H](C[C@@H]1CCNC1=O)NC(=O)[C@@H](CC(=O)[C@@H](NC(=O)c1cc(C)on1)C(C)C)Cc1ccc(F)cc1 [AG 7088]
concentration range of effect in the cell culture [10]: nanomolar concentration range

Cc1cc(CCCOc2c(C)cc(-c3noc(C(F)(F)F)n3)cc2C)on1 [Pleconaril]
oral bioavailability ([4]; po): very good oral bioavailability | therapeutic effect [6]: therapy success was too low | side effects ([6]; in vivo): side effects were observed

CC(C)S(=O)(=O)n1c(N)nc2ccc(/C(=N/O)c3ccccc3)cc21 [Enviroxime]
therapeutic effect [6]: few or no therapeutic effects | pharmacokinetics ([6]; in vivo): insufficient pharmacokinetics | side effects ([6]; in vivo): unwanted side effects

N-(4b-hydroxy-7-isopropyl-4-nitro-10-oxo-4b, 10-dihydro-9bH-indeno[1,2-b]benzofuran-9b-yl)-2-oxo-4-phenyl butanamide [Example 59]
CC50 Cytotoxicity [7]: 8.6 µg/mL | EC50 HRV 14 (HRV 14; [11]): <0.1 µg/mL | EC50 CoxB3 [1]: <0.1 µg/mL | EC50 HRV 21 (HRV 21; [11]): >8.6 µg/mL | EC50 HRV 71 (HRV 71; [11]): >8.6 µg/mL | EC50 CoxB1 [2]: <0.1 µg/mL | CC50 Cytotoxicity (HeLa): >10.0 µg/mL | EC50 PV3 (poliovirus 3 (PV3)): <0.1 µg/mL

CCOC(=O)C(=O)NC12C(=O)c3ccccc3C1(O)Oc1cc(C(C)C)ccc12 (stereo not shown) [Example 32, Ethyl 2-((4b-hydroxy-7-isopropyl-10-oxo-4b, 10-dihydro-9bH-indeno[1,2-b]benzofuran-9b-yl)amino)-2-oxo acetate]
EC50 (HRV 14; [11]): < 1 µg/mL | EC50 [1]: < 1 µg/mL | EC50 (HRV 21; [11]): > 10 µg/mL | CC50 (in vitro): > 10 µg/mL | EC50 (HRV 71; [11]): > 10 µg/mL | EC50 [2]: < 0.1 µg/mL | CC50 at 3 days [9]: > 10 µg/mL | EC50 (poliovirus 3 (PV3)): < 10 µg/mL
